According to patent publication EP4603105A1, “PHARMACEUTICAL COMPOSITION CONTAINING CYCLIC COMPOUND HAVING SELECTIVE KRAS INHIBITORY EFFECT AGAINST HRAS AND NRAS” (CHUGAI SEIYAKU KABUSHIKI KAISHA, priority 2022, dated 2024):
Where two headings read alike, the source gives them in different places.

Experiments:
[1] = target: GDP-bound KRAS wild-type protein (Homo sapiens, UniProt P01116); assay: Binding to KRAS by surface plasmon resonance (SPR), dissociation constant KD
In short: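 Read-out is KD from 1:1 fitting of single-cycle kinetics sensorgrams, blank-cycle and reference-surface corrected. Proteins were GDP-loaded, biotinylated Avi-fusions freshly captured each cycle at roughly 100–300 RU. Runs were at 30°C in HBS pH 7.4 with MgCl2, GDP and 4% DMSO.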

[2] = test system: human lung cancer strain NCI-H441; assay: NCI-H441 cell proliferation inhibitory activity (CellTiter-Glo, 4 days); type: cell-based; conditions: read-out: NCl-H441 IC50
In short: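 Readout: […] after the ATP-based reagent. Compound: serial dilutions in dimethyl sulfoxide.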

HRAS wild-type protein = HRAS wild-type protein (Homo sapiens, UniProt P01112); assay: Binding to HRAS by surface plasmon resonance (SPR), KD and KD ratio to KRAS
Chain of HRAS wild-type protein (P01112 whole entry): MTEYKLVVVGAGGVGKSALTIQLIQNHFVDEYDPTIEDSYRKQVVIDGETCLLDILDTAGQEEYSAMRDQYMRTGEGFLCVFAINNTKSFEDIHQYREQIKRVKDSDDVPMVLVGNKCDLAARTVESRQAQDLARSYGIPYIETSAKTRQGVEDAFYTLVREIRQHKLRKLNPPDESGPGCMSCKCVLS
In short: (§1)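 GDP-bound biotin-Avi RAS captured at ~100–300 RU, 30°C, pH 7.4 HBS containing 10 µM GDP, 10 mM MgCl2, 1 mM DTT, 0.01% Tween 20 and 4% DMSO. KD by 1:1 fitting.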

[3] = target: GDP-bound NRAS wild-type protein (Homo sapiens, UniProt P01111); assay: Binding to NRAS by surface plasmon resonance (SPR), KD and KD ratio to KRAS
Chain of GDP-bound NRAS wild-type protein (P01111 whole entry): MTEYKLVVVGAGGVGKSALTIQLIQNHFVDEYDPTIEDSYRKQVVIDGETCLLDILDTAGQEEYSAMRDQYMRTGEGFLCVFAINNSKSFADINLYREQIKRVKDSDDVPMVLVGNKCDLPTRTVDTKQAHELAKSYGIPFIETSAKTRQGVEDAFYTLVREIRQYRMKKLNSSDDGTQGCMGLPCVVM
In short: as §1

[4] = ratio of KD for HRAS wild-type protein to KD for KRAS
[5] = ratio of KD for GDP-bound NRAS wild-type protein to KD for KRAS
[6] = Single Cycle Kinetics, 1:1 binding model
[7] = 50% proliferation inhibitory concentration, four days
[8] = ratio of KD with respect to HRAS wild-type protein to KD with respect to KRAS
[9] = ratio of KD with respect to GDP-bound NRAS wild-type protein to KD with respect to KRAS

Chain of GDP-bound KRAS wild-type protein (P01116 1-188 isoform P01116-2): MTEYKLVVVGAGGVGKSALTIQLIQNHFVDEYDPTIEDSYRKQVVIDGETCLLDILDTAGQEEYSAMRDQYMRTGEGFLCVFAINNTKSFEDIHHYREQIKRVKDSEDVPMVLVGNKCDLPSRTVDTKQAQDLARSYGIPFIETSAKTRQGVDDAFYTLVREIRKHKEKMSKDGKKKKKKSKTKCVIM

Kd ([1]; Single Cycle Kinetics) | IC50 ([2]; NCI-H441 cells, 4 days) | Kd [1, 6] | IC50 [2, 7] | Kd ([1]; 1:1 binding model) | SMILES | HRAS /KRAS (HRAS wild-type protein; [4]) | NRAS /KRAS [3, 5] | HRAS /KRAS (HRAS wild-type protein; [8]) | NRAS /KRAS [3, 9]
0.047 nM | 12.1 nM | – | – | – | CCC[C@H]1C(=O)N[C@@H]([C@@H](C)CC)C(=O)N(C)CC(=O)N(C)[C@H]2C/C=C\CCN(C2=O)[C@@H](Cc2ccc(C(F)(F)F)cc2)C(=O)N(C)CC(=O)N[C@@H](CCc2ccc(C(F)(F)F)c(Cl)c2)C(=O)N2CC3(CC3)C[C@H]2C(=O)NC2(CCC2)C(=O)N(C)[C@@H](C2CCCC2)C(=O)N(C)[C@H](C(=O)N(C)C)CC(=O)N1C [PP3440] | A (a compound having 10 or more and less than 20 is denoted as A) | AA (a compound having 20 or more is denoted as AA) | – | –
– | – | 0.17 nM | 48.3 nM | – | CCO[C@@H]1C[C@H]2C(=O)NC3(CCC3)C(=O)N(C)[C@@H](C3CCCC3)C(=O)N(C)[C@H](C(=O)N(C)C)CC(=O)N(C)[C@@H](Cc3cccc(C#N)c3)C(=O)N[C@@H]([C@@H](C)CC)C(=O)N(C)CC(=O)N(C)[C@H]3CCCCCN(C3=O)[C@@H](Cc3ccc(C(F)(F)F)cc3)C(=O)N(C)CC(=O)N[C@@H](CCc3cc(F)c(C(F)(F)F)c(F)c3)C(=O)N2C1 [PP1172] | – | – | B (a compound having 3 or more and less than 10 is denoted as B) | B (a compound having 3 or more and less than 10 is denoted as B)
– | 20 nM | – | – | 0.49 nM | CCC(CC)[C@H]1C(=O)N(C)[C@H](C(=O)N(C)C)CC(=O)N(C)[C@@H](COC)C(=O)N[C@@H]([C@@H](C)CC)C(=O)N(C)CC(=O)N(C)[C@H]2C/C=C\CCN(C2=O)[C@@H](Cc2ccc(C(F)(F)F)cc2)C(=O)N(C)CC(=O)N[C@@H](CCc2ccc(Cl)c(Cl)c2)C(=O)N2C[C@H](OC(C)C)C[C@H]2C(=O)NC2(CC(C)(C)C2)C(=O)N1C [PP2533] | A (a compound having 10 or more and less than 20 is denoted as A) | AA (a compound having 20 or more is denoted as AA) | – | –
0.14 nM | 8.6 nM | – | – | – | CCO[C@@H]1C[C@H]2C(=O)NC3(CC(C)(C)C3)C(=O)N(C)[C@@H](C3CCCC3)C(=O)N(C)[C@H](C(=O)N(C)C)CC(=O)N(C)[C@@H](CC(C)C)C(=O)N[C@@H]([C@@H](C)CC)C(=O)N(C)CC(=O)N(C)[C@H]3C/C(F)=C\CCN(C3=O)[C@@H](Cc3ccc(C)cc3)C(=O)N(C)CC(=O)N[C@@H](CCc3cc(F)c(C(F)(F)F)c(F)c3)C(=O)N2C1 [PP3513] | B (a compound having 3 or more and less than 10 is denoted as B) | B (a compound having 3 or more and less than 10 is denoted as B) | – | –
0.51 nM | 4.7 nM | – | – | – | CCO[C@@H]1C[C@H]2C(=O)OC3(CCC3)C(=O)N(C)[C@@H](C3CCCC3)C(=O)N(C)[C@H](C(=O)N(C)C)CC(=O)N(C)[C@@H]([C@@H](C)OC)C(=O)N[C@@H]([C@@H](C)CC)C(=O)N(C3CC3)CC(=O)N(C)[C@H]3C/C=C\CCN(C3=O)[C@@H](Cc3ccc(C)cc3)C(=O)N(C)CC(=O)N[C@@H](CCc3ccc(C(F)(F)F)c(OC)c3)C(=O)N2C1 [PP3393] | B (a compound having 3 or more and less than 10 is denoted as B) | A (a compound having 10 or more and less than 20 is denoted as A) | – | –
0.68 nM | 39.7 nM | – | – | – | CCCO[C@@H]1C[C@H]2C(=O)NC3(CC(C)(C)C3)C(=O)N(C)[C@@H](C3CCCC3)C(=O)N(C)[C@H](C(=O)N(C)CC)CC(=O)N(C)[C@@H](COCC)C(=O)N[C@@H]([C@@H](C)CC)C(=O)N(C3CC3)CC(=O)N(C)[C@H]3C/C=C\CCN(C3=O)[C@@H](Cc3ccc(C)cc3)C(=O)N(C)CC(=O)N[C@@H](CCc3ccc(C(F)(F)F)c(Cl)c3)C(=O)N2C1 [PP3462] | A (a compound having 10 or more and less than 20 is denoted as A) | AA (a compound having 20 or more is denoted as AA) | – | –
0.22 nM | 3.4 nM | – | – | – | CCC[C@H]1C(=O)N[C@@H]([C@@H](C)CC)C(=O)N(C2CC2)CC(=O)N(C)[C@H]2C/C(F)=C\CCN(C2=O)[C@@H](Cc2ccc(C)cc2)C(=O)N(C)CC(=O)N[C@@H](CCc2ccc(C(F)(F)F)c(OC)c2)C(=O)N2C[C@H](OCC)C[C@H]2C(=O)N(C)C2(CCC2)C(=O)N(C)[C@@H](C2CCCC2)C(=O)N(C)[C@H](C(=O)N(C)C)CC(=O)N1C [PP3525] | B (a compound having 3 or more and less than 10 is denoted as B) | B (a compound having 3 or more and less than 10 is denoted as B) | – | –
0.96 nM | 39.8 nM | – | – | – | CCCOC[C@H]1C(=O)N[C@@H](C2CCCC2)C(=O)N(CCC)CC(=O)N(C)[C@H]2C/C=C\CCN(C2=O)[C@@H](Cc2ccc(C(F)F)cc2)C(=O)N(C)CC(=O)N[C@@H](CCc2cc(F)c(C(F)(F)F)c(F)c2)C(=O)N2C[C@H](OC(C)C)C[C@H]2C(=O)N(C)C2(CCC2)C(=O)N(C)[C@@H](C(CC)CC)C(=O)N(C)[C@H](C(=O)N(C)C)CC(=O)N1C [PP3487] | A (a compound having 10 or more and less than 20 is denoted as A) | A (a compound having 10 or more and less than 20 is denoted as A) | – | –
– | 84.8 nM | – | – | 1.5 nM | CCC[C@H]1C(=O)N[C@@H]([C@@H](C)CC)C(=O)N(C)CC(=O)N(C)[C@H]2C/C=C\CCN(C2=O)[C@@H](CC2CCC(F)(F)CC2)C(=O)N(C)CC(=O)N[C@@H](CCc2ccc(C(F)(F)F)c(OC)c2)C(=O)N2C[C@@H](C)C[C@H]2C(=O)NC2(CC(C)(C)C2)C(=O)N(C)[C@@H](C(CC)CC)C(=O)N(C)[C@H](C(=O)N(C)C)CC(=O)N1C [PP2497] | A (a compound having 10 or more and less than 20 is denoted as A) | A (a compound having 10 or more and less than 20 is denoted as A) | – | –
– | – | 0.024 nM | 4.6 nM | – | CCO[C@@H]1C[C@H]2C(=O)NC3(CCCC3)C(=O)N(C)[C@@H](C3CCCC3)C(=O)N(C)[C@H](C(=O)N(C)C)CC(=O)N(C)[C@@H](CC)C(=O)N[C@@H]([C@@H](C)CC)C(=O)N(C)CC(=O)N(C)[C@H]3C[C@@H](C)[C@@H](C)CN(C3=O)[C@@H](Cc3ccc(C(F)(F)F)cc3)C(=O)N(C)CC(=O)N[C@@H](CCc3cc(F)c(C(F)(F)F)c(F)c3)C(=O)N2C1 [PP1352] | – | – | B (a compound having 3 or more and less than 10 is denoted as B) | A (a compound having 10 or more and less than 20 is denoted as A)
– | 33.6 nM | – | – | 1.6 nM | CCO[C@@H]1C[C@H]2C(=O)NC3(CC(C)(C)C3)C(=O)N(C)[C@@H](C(CC)CC)C(=O)N(C)[C@H](C(=O)N(C)C)CC(=O)N(C)[C@@H](C(C)C)C(=O)N[C@@H]([C@@H](C)CC)C(=O)N(C)CC(=O)N(C)[C@H]3C/C=C\CCN(C3=O)[C@@H](CC3CCC(F)(F)CC3)C(=O)N(C)CC(=O)N[C@@H](CCc3cc(F)c(C(F)(F)F)c(F)c3)C(=O)N2C1 [PP2481] | A (a compound having 10 or more and less than 20 is denoted as A) | A (a compound having 10 or more and less than 20 is denoted as A) | – | –
4.5 nM | 144 nM | – | – | – | CCC[C@H]1C(=O)N[C@@H]([C@@H](C)CC)C(=O)N2CCCCC[C@H]2C(=O)N(C)[C@H]2C/C=C\CCN(C2=O)[C@@H](Cc2ccc(C)cc2)C(=O)N(C)CC(=O)N[C@@H](CCc2ccc(C(F)(F)F)c(OC)c2)C(=O)N2C[C@H](OCC)C[C@H]2C(=O)N(C)C2(CCC2)C(=O)N(C)[C@@H](C2CCCC2)C(=O)N(C)[C@H](C(=O)N(C)C)CC(=O)N1C [PP3279] | B (a compound having 3 or more and less than 10 is denoted as B) | A (a compound having 10 or more and less than 20 is denoted as A) | – | –
